Each structure is given as a SMILES string.

Experiment [1] deals with T1, human CB1 receptor (Homo sapiens, UniProt P21554). As to the kind of experiment: CB1 receptor AequoScreen functional assay (agonist mode). It is filed as cell-based. Details: Perkin Elmer (host cells ES-000-A24); host or cells: CHO-K1 aeq/G16 (transient, FuGene). An excerpt:
Aequorin is a photoprotein originating from the jellyfish Aequorea Victoria. The apo-enzyme (apoaequorin) requires a hydrophobic prosthetic group, coelenterazine, to be converted to aequorin, the active form of the enzyme. […] Upon calcium binding, aequorin oxidizes coelenterazine into coelenteramide with the production of CO2 and emission of light. The consumption of aequorin is proportional to the calcium concentration. Therefore, measurement of the light emitted upon oxidation of coelenterazine is a reliable tool for measurement of intracellular calcium flux. […]
FuGene from Promega (Catalog number selected: E2691) was used to transiently transfect CHO-K1 aeq/G16 cells with an expression vector containing the open reading frame (ORF) expression clone for CNR1 (NM_016083.4; bacterial stock; Gencopeia Inc.) at a ratio of 15 ng of plasmid DNA to 480,000 cells. […]
After incubation, the mixture was diluted 3-fold in assay media and kept under constant gentle agitation at room temperature. […] Cells were injected automatically over the serial diluted test compounds and CP55,940 using a liquid dispenser, and the luminescence was recorded over 10-30 seconds in a microplate reader.
Sigmoidal dose-response curves were generated using average Luminescent Counts Per Second (LCPS) which were recorded immediately after cells were mixed with compounds in agonist mode.

In experiment [2] the target is T1, human CB1 receptor. Nature of the experiment: biochemical. It is filed as binding. Details: membranes prepared in house.
Experiment [3] has as its target T1, human CB1 receptor. As to the kind of experiment: PathHunter β-Arrestin functional assay, CB1 receptor, agonist mode. It is filed as cell-based. Details: membranes prepared in house. The source says:
In the PathHunter® β-Arrestin system from DiscoveRx (Eurofins, Fremont, CA), a small peptide, the ProLink™ (PK), is fused to the intracellular sequence of a GPCR target, and a complementing peptide, the enzyme acceptor (EA) fragment, is fused to β-arrestin. After binding to its specific ligand, the GPCR target recruits β-arrestin, forcing the complementation of the two β-galactosidase enzyme fragments (EA and PK) to produce a functional β-galactosidase enzyme. The enzyme activity, and thus the amount of ligand bound to the GPCR, is detected with a single addition of a reagent cocktail to lyse the cells and produce a chemiluminescent signal before being analyzed using a traditional plate reader.
PathHunter® CHO-K1 CNR1 β-Arrestin cells (DiscoverRx, cat. Number 93-0959C2) stably expressing CB1 receptor (CB1R) were grown in Ham's F12 medium curtaining 10% fetal bovine serum (FBS), 1% penicillin/streptomycin, 300 μg/mL Hygromycin B and 800 μg/mL geneticin (G418) and maintained in 37° C. incubators at 5% CO2. […]
The incubation was terminated by adding the detection reagent (19 parts of 1% CHAPS, 5 parts Emerald-II and 1 part Galacton-Star), equivalent to 50% of the assay volume to each wells. Plates were incubated for 1 hour in the dark at room temperature, followed by chemiluminescence detection using a microplate reader.
Data were analysed by generating nonlinear regression curves. […]

A further experiment concerns the target T2, human CB2 receptor (Homo sapiens, UniProt P34972).
T2 construct: membranes prepared in house
Nature of the experiment: CB2 radioligand competitive binding assay ([3H]CP 55,940 displacement). As for the experimental part: Compounds of the present disclosure were tested for CB1 receptor binding affinity and for CB2 receptor binding affinity. As used herein, “binding affinity” is represented by the IC50 value, which was experimentally determined as described herein. The lower the IC50 value the higher the binding affinity. A compound of the present disclosure may be said to have “binding selectivity” If it has a higher binding affinity for one receptor compared to the other.
The membranes were prepared from CHO-K1 (Chinese hamster ovary) cells stably transfected with the human CB2 receptor (Cat. #ES-111-C; Perkin Elmer, Boston, MA). The cells were grown adherently and maintained in Ham's F12 medium containing 10% fetal bovine serum (FBS), penicillin, streptomycin and geneticin (G418) at 37° C. in a humid atmosphere of 5% CO2 following the manufacturer's Instructions.
For membrane preparation the cells were washed with PBS and scraped off the plates in cold homogenization buffer (25 mM HEPES (pH 7.4), 2 mM EDTA) containing protease inhibitor cocktail (Sigma Cat. #P8340). The cell suspension was homogenized with a Pro-PK-01200D Polytron Homogenizer (Pro Scientific) and then centrifuged for 30 min at 120,000×g. The supernatant was discarded and the pellet was re-suspended in the homogenization buffer and stored at −80° C. until the time of use.
In this experiment, 3H radiolabeled CP 55,940, i.e. [3H]CP 55,940 (Perkin Elmer, Boston, MA), was used as a radioligand for the CB2 receptor to determine the binding affinity of compounds for the CB2 receptor (Scheme 8; above).
The competition binding experiments (single dose and dose-response) were performed by incubating 0.6 nM of [3H]CP55,940 (specific activity 101 Ci/mmol, Perkin Elmer) and different concentrations of compounds disclosed herein with membranes prepared as above from CHO-K1 cells expressing human CB2 receptor (1 μg of protein/well), 50 mM Tris-HCl (pH 7.4), 5 mM MgCl2, 1 mM CaCl2, and 2 mg/mL BSA.
For the single dose experiments, the compound stocks (usually 10 mM in DMSO) were diluted to working stocks in the binding buffer to give the final compound concentrations of 10 μM and 1 μM. For the dose-response experiments the test compounds were sequentially diluted to provide the desired concentration range for the IC50 determination. In each case the compounds were pre-incubated with the membrane for 20 min, before adding the radioligand.
After incubation with the radioligand for 60 min at 37° C., the incubation was terminated by rapid filtration of assay mixture through MultiScreen®HTS^+ 96-well filter plates (Millipore, Cat. #MSFCNXB), pre-soaked for 60 min with 50 mM Tris-HCl (pH 7.4) containing 0.33% polyethylenimine (PEI). The nonspecific binding (NSB) was determined in the presence of 10 μM unlabeled CP55,940. After drying the filter plate at 50° C. for at least 60 min, the filter-bound radioactivity was determined by scintillation spectrometry using the 1450 MicroBeta Plate Counter (Perkin Elmer, Boston, MA). From the dose-response experiments, the IC50 values were determined (see Table 1, CB2 IC50).

T1 sequence (P21554 whole entry): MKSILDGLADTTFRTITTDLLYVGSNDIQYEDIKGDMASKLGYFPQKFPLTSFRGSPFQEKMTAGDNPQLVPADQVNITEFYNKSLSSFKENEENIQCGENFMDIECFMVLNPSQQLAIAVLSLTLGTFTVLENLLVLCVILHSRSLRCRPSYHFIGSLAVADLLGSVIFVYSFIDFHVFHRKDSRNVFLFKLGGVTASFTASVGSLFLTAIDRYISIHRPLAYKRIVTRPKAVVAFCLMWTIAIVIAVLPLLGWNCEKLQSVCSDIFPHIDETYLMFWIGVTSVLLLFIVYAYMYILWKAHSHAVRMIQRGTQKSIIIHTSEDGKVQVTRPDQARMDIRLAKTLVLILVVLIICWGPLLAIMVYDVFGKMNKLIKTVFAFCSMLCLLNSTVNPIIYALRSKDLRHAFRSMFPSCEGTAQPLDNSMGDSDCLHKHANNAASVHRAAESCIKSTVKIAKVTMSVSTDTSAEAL
T2 sequence (P34972 whole entry): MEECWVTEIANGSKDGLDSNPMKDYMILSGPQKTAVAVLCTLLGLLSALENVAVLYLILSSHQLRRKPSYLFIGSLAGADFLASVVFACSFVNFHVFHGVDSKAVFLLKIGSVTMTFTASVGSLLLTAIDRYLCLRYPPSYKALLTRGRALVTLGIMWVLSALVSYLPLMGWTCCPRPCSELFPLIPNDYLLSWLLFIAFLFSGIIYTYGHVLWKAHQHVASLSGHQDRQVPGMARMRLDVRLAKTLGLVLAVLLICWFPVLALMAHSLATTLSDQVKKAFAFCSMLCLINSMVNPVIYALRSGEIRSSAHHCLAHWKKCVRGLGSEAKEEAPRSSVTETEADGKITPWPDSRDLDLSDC

As a reminder, the EC50 is the midpoint of the concentration-response curve. Read a high EC50 as lower potency in that assay. As a reminder, the IC50 is the midpoint of a concentration-inhibition curve. A low value points to greater potency in that assay. For `CCCCCc1cc(O)c(C2C=C(C)CCC2)c(O)c1S(=O)(=O)N(CC)CC` (stereo not shown) [Compound 62c, N,N-diethyl-2,6-dihydroxy-5′-methyl-4-pentyl-1′,2′,3′,4′-tetrahydro-[1,1′-biphenyl]-3-sulfonamide], the EC50 at human CB1 receptor [1] is roughly 502 nM; at human CB1 receptor [3] it was roughly 499 nM. In addition, the “relative efficacy in comparison to CP55,940” value is reported as “about 117%” at human CB1 receptor [1] (AequoScreen, agonist mode, CHO-K1 aeq/G16 cells transfected with CNR1) and “about 56%” on human CB1 receptor [3] (agonist mode, PathHunter CHO-K1 CNR1 β-Arrestin cells). Moreover, the IC50 against human CB1 receptor [2] was 100 to 990 nM; at human CB2 receptor ([3H]CP 55,940 displacement, CHO-K1 membranes expressing human CB2 receptor), less than 100 nM. For the same compound, the “Selectivity CB2” value on human CB2 receptor (fold difference in binding between CB1 and CB2, shown in the column of the receptor with higher affinity, 1.00 in both = about same affinity) is 31.82 fold.

The values above are taken from patent publication US12012373B2, “Cannabinoid derivatives” (CANOPY GROWTH CORPORATION, priority 2019, dated 2024).
